Source: patent US11358947B2, “Substituted 2-acylamino-cycloalkylthiophene-3-carboxylic acid arylamides as inhibitors of calcium-activated chloride channel TMEM16A” (THE REGENTS OF THE UNIVERSITY OF CALIFORNIA, priority 2017, dated 2022)
Values joined by “and” are separate entries in the source; they are usually repeats but may differ in a detail not shown here. Equal entries are not always repeated.

Columns and labels:
[1] = biological target: T1, TMEM16A (Homo sapiens, UniProt Q5XXA6); assay: TMEM16A functional fluorescence plate reader (FPR) assay, iodide influx in FRT cells with YFP; format: cell-based; conditions: TMEM16A-expressing FRT cells, compound 10 min before iodide/ATP
T1 sequence (Q5XXA6 1-986): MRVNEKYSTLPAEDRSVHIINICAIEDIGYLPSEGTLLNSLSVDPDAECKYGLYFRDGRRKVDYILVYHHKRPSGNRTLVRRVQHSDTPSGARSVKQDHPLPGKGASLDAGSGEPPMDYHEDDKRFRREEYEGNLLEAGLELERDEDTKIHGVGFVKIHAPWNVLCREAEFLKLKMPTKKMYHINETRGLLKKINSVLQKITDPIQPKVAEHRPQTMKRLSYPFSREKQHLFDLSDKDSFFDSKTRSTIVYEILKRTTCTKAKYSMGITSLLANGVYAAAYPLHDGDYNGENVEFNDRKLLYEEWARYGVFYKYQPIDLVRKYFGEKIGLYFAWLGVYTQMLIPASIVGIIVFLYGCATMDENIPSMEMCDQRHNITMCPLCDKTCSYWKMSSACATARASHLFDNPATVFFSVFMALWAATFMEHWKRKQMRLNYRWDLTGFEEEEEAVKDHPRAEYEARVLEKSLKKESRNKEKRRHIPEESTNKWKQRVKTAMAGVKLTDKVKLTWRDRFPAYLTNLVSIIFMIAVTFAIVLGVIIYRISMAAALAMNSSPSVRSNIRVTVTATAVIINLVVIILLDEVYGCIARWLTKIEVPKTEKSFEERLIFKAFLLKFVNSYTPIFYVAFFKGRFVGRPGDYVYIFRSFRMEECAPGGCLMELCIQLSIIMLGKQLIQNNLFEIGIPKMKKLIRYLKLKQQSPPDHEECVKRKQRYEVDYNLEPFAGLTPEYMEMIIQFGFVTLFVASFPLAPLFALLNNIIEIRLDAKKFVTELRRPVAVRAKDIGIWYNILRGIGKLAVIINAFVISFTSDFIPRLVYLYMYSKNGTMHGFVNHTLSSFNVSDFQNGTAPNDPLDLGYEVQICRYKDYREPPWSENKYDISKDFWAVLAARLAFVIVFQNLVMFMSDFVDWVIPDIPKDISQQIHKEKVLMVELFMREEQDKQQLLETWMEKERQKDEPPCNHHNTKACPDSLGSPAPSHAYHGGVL
Method: A high-throughput screening assay was previously developed to identify small molecule inhibitors of TMEM16A. […] The assay involved addition of test compounds to the cells for 10 min in a physiological chloride-containing solution, followed by addition of an iodide solution containing ATP. TMEM16A-facilitated iodide influx was determined from the initial time course of decreasing YFP fluorescence.
2-Acylamino-cycloalkylthiophene-3-carboxylic acid arylamides 6aa-6bw were initially evaluated for inhibition of TMEM16A anion channel function using a cell-based functional plate reader assay as reported.
Yields (%) are of the isolated or purified products. IC50 (μM) for inhibition of TMEM16A anion conductance using a fluorescence plate reader (FPR) assay.
Cell lines and culture. Fischer Rat Thyroid (FRT) cells stably co-expressing TMEM16A, TMEM16B and human wild-type CFTR and the halide-sensitive yellow fluorescent protein (YFP)-H148Q were cultured as described. […] For plate reader assays, cells were plated in black 96-well microplates (Corning-Costar Corp., New York, N.Y.) at a density of 20,000 cells per well and assayed 24-48 hours after plating.
(§1) TMEM16A functional assay. TMEM16A functional plate-reader assay was done as previously described. […] Test compounds (0.5 μl in DMSO) were added to each well at specified concentration. […] The initial rate of I− influx following each of the solution additions was computed from fluorescence data by nonlinear regression. TMEM16B activity was assayed similarly as described using FRT cells co-expressing YFP and TMEM16B.

[2] = biological target: T2, TMEM16B (Homo sapiens, UniProt Q9NQ90); assay: TMEM16B fluorescence plate reader assay in FRT cells; format: cell-based
T2 construct: expressed in transfected cells; host or cells: Fischer Rat Thyroid (FRT) cells co-expressing YFP
T2 sequence (Q9NQ90 1-998): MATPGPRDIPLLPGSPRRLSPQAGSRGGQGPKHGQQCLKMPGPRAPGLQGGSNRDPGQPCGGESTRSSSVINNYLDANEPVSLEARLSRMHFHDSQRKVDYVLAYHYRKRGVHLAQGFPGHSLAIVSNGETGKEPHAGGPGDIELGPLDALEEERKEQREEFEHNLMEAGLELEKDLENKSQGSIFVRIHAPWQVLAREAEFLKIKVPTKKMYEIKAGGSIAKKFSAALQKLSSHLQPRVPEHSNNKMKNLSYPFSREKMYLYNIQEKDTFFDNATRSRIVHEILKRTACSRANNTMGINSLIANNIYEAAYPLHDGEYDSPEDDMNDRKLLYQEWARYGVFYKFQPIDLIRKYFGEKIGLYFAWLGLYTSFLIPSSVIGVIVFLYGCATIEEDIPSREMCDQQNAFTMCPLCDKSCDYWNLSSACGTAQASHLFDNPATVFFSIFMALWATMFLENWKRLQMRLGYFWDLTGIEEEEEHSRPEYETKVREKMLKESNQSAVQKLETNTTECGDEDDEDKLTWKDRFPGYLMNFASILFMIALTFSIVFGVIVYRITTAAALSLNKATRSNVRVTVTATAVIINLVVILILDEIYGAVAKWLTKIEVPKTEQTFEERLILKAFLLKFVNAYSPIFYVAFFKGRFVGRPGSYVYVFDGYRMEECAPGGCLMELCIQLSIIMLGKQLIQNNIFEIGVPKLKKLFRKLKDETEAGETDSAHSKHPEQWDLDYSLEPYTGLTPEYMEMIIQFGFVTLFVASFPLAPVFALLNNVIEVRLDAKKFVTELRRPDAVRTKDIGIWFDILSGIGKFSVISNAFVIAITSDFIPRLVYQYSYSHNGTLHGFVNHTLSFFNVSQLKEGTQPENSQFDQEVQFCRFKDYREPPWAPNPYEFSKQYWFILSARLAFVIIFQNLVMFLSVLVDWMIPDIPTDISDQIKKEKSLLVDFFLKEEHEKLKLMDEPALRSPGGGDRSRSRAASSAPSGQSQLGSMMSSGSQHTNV
Method: (§2) Concentration-dependent inhibition of TMEM16A measured by short-circuit current assay; TMEM16B and non-TMEM16 anion conductance measured using a fluorescence plate reader assay using FRT and HT-29 cells respectively; cell viability measured in FRT null cells.
(§3) We further assayed the compound potency on endogenous non-TMEM16A. Ca^2+-activated Cl^− channel in HT-29 cells.
as §1

[3] = test system: FRT null cells; assay: Cytotoxicity by Alamar Blue assay in FRT cells; format: cell-based, rat; conditions: 8 h
Method: as §2, §3
Cytotoxicity. FRT cells were cultured overnight in black 96-well Costar microplates and incubated with 5 μM test compounds for 8 h. Cytotoxicity was measured by Alamar Blue assay (Invitrogen, Carlsbad, Calif.) as per the manufacturer's instructions.

[4] = biological target: T1, TMEM16A; assay: Short-circuit current assay in TMEM16A-expressing FRT cells; format: cell-based
Source text: Measurements were done in FRT cells expressing TMEM16A.
as §2
Short-circuit current measurement. Short-circuit current measurements were done as described. (See Piechowicz, K. A. et al., J Enzyme Inhib Med Chem 2016, 1-7.) Briefly, Snapwell inserts (Corning Costar, Corning, N.Y.) containing TMEM16A-expressing FRT cells were mounted in Ussing chambers (Physiological instruments, San Diego, Calif.). The hemichambers were filled with 5 ml of HCO3^− buffered solution (basolateral) and half-Cl^− solution (apical), and the basolateral membrane was permeabilized with 250 μg/ml amphotericin B. Solutions were bubbled with 95% O2/5% CO2 and maintained at 37° C., and short-circuit current was measured on a DVC-1000 voltage clamp (World Precision Instruments Inc., Sarasota, Fla.) using Ag/AgCl electrodes and 3 M KCl agar bridges.

[5] = test system: SW-480 cells; assay: SW-480 cell proliferation, AlamarBlue after 72 h; format: cell-based; conditions: for IC50: Homo sapiens, SW480, AlamarBlue after 72 h of drug treatment, read-out: IC50 inhibition of SW-480 cell proliferation
Method: Compounds according to the present disclosure (structures shown in FIG. 5B) were tested for their inhibitory effect on proliferation of SW-480 cell line.
SW-480 cells were cultured on plastic in Leibovitz L15 medium supplemented with 10% fetal bovine serum, 2 mM L-glutamine, 100 units/mL penicillin, and 100 μg/mL streptomycin. The cells were incubated at 37° C. without CO2.
SW-480 cells were plated into black 96-well microplates (Corning-Costar Corp., New York, N.Y.) at 10% seeding. The cells were treated with test compounds dissolved in DMSO in serial dilution while maintaining the final concentration of DMSO at 0.5%. Plated cells were then incubated for 72 h at 37° C. Cell proliferation was quantified using the AlamarBlue assay (Invitrogen, Carlsbad, Calif.) as per the manufacturer's instructions. Data was normalized against untreated control cells that were lysed for 10 minutes using Triton-X100 (0.1% in PBS).

[6] = In vitro metabolic stability with rat liver microsomes and NADPH; format: in vitro ADME; conditions: rat liver microsomes + NADPH, 180 min
Method: (3B) LC/MS traces showing total ion counts as a function of incubation time.
These compounds were incubated with rat liver microsomes and NADPH, and non-metabolized compounds were quantified by ESI-LCMS. […] It is speculated that Ani-9 could be oxidized at the aryl methyl or N—N bond; or hydrolyzed at the amide or hydrazone linkages.
Compounds (each 10 uM) were incubated for specific time points (2, 5, 15, 30, 60, 180 min) with shaking at 37° C. with rat liver microsomes (1 mg protein/mL, Sigma-Aldrich, St. Louis, Mo.) in potassium phosphate butler (100 mM) containing 1 mM NADPH. The mixture was then chilled on ice, and 0.5 mL of ice-cold ethyl acetate was added. Samples were centrifuged for 15 min at 3000 RPM. The supernatant was evaporated to dryness, and the residue was dissolved in 80 μL of mobile phase (acetonitrile:/water, 3:1, containing 0.1% formic acid) for LC/MS. Reverse-phase HPLC separation was carried out using a Waters C18 column (2.1 mm×100 mm, […]) equipped with a solvent delivery system (Waters model 2690, Milford, Mass.).

[7] = test system: SW-480 cells; conditions: several tumor cell lines including SW480, reported; cited from earlier work

## O=C(Nc1ccccc1OC(F)(F)F)c1c(NC(=O)C(F)(F)I)sc2c1CCC2 [Compound 6bw, 2-(2,2-Difluoro-2-iodo-acetylamino)-5,6-dihydro-4H-cyclopenta[b]thiophene-3-carboxylic add (2-trifluoromethoxy-phenyl)-amide]
[1]
  IC50: 1.88 µM

## Cc1ccccc1NC(=O)c1c(NC(=O)C(F)(F)I)sc2c1CCCCC2 [Compound 6bn, 2-(2,2-Difluoro-2-iodo-acetylamino)-5,6,7,8-tetrahydro-4H-cyclohepta[b]thiophene-3-carboxylic acid o-tolylamide]
[2]
  IC50: 1.4 µM
[3]
  Cellular survival % at 5 μM: 96%
[1]
  IC50: 0.6 µM
[4]
  IC50: 0.73 µM

## Cc1ccc(NC(=O)c2c(NC(=O)C(F)(F)F)sc3c2CCCC3)cc1 [Compound 6aw, 2-(2,2,2-Trifluoro-acetylamino)-4,5,6,7-tetrahydro-benzo[b]thiophene-3-carboxylic acid p-tolylamide]
[1]
  IC50: 0.2 to 0.3 µM and 0.22 µM

## CCC(=O)Nc1sc2c(c1C(=O)Nc1ccccc1)CCCCC2 [Compound 6ah, 2-Propionylamino-5,6,7,8-tetrahydro-4H-cyclohepta[b]thiophene-3-carboxylic acid phenylamide]
[1]
  IC50: 1.2 µM

## COc1ccc(Cl)cc1NC(=O)c1c(NC(=O)C(F)(F)F)sc2c1CCCCC2 [am1_47, N-(5-chloro-2-methoxyphenyl)-2-(2,2,2-trifluoroacetamido)-5,6,7,8-tetrahydro-4H-cyclohepta[b]thiophene-3-carboxamide]
[5]
  IC50: 0.47 µM
[5]; SW480 cells
  Potency in inhibiting proliferation of SW480 cells compared with CaCCinh-A01 (in words): considerably more potent than CaCCinh-A01

## O=C(Nc1ccccc1)c1c(NC(=O)C(F)(F)Cl)sc2c1CCCCC2 [Compound 6bo, 2-(2-Chloro-2,2-difluoro-acetylamino)-5,6,7,8-tetrahydro-4H-cyclohepta[b]thiophene-3-carboxylic acid phenylamide]
[1]
  IC50: 0.925 µM

## COc1ccccc1/C=N/NC(=O)COc1ccc(Cl)cc1C [Ani-9, reference compound]
[6]
  Degradation (in words): near complete degradation

## O=C(Nc1ccccc1F)c1c(NC(=O)C(F)(F)F)sc2c1CCCCC2 [Compound 6aj, 2-(2,2,2-Trifluoro-acetylamino)-5,6,7,8-tetrahydro-4H-cyclohepta[b]thiophene-3-carboxylic acid (2-fluoro-phenyl)-amide]
[1]
  IC50: 1.3 µM

## Cc1ccccc1NC(=O)c1c(NC(=O)C(F)(F)Cl)sc2c1CCCCC2 [Compound 6bk, 2-(2-Chloro-2,2-difluoro-acetylamino)-5,6,7,8-tetrahydro-4H-cyclohepta[b]thiophene-3-carboxylic acid o-tolylamide]
[2]
  IC50: 0.4 µM
[3]
  Cellular survival % at 5 μM: 98%
[1]
  IC50: 0.08 to 0.18 µM and 0.18 µM
[5]
  IC50: 0.75 µM
[4]
  IC50: 0.23 µM

## CC(C)(C)C1CCc2c(sc(NC(=O)c3ccco3)c2C(=O)O)C1 (stereo not drawn) [CaCCinh-A01, 6-t-butyl-2-(furan-2-carboxamido)-4,5,6,7-tetrahydrobenzo[b] thiophene-3-carboxylic acid]
[7]
  Concentrations reported to inhibit proliferation of TMEM16A-expressing tumor cell lines: 10 to 20 µM
